Data: the NIST ThermoML archive (doi:10.1021/je700260f)

Conditions: Liquid, Vibrating tube method

FC(C(F)(F)F)C(F)(F)F [1,1,1,2,3,3,3-heptafluoropropane]
Conditions	mass density [kg/m3]
313.14 K, 30999 kPa	1493.6
313.14 K, 31036 kPa	1493.7
313.14 K, 31073 kPa	1494
313.14 K, 31110 kPa	1494.1
313.14 K, 31162 kPa	1494.3
313.14 K, 31193 kPa	1494.3
313.14 K, 31225 kPa	1494.5
313.14 K, 31252 kPa	1494.5
313.14 K, 31284 kPa	1494.6
313.14 K, 31324 kPa	1494.9
313.14 K, 31355 kPa	1494.8
313.14 K, 31397 kPa	1495.1
313.14 K, 31585 kPa	1495.6
313.14 K, 31617 kPa	1495.8
313.14 K, 31653 kPa	1495.9
313.14 K, 31696 kPa	1495.9
313.14 K, 31739 kPa	1496.2
313.14 K, 32132 kPa	1497.6
313.14 K, 32203 kPa	1497.7
313.14 K, 32369 kPa	1498.3
313.14 K, 32414 kPa	1498.5
313.14 K, 32447 kPa	1498.5
313.14 K, 32485 kPa	1498.7
313.14 K, 32523 kPa	1498.9
313.14 K, 32566 kPa	1499
313.14 K, 32604 kPa	1499
313.14 K, 32652 kPa	1499.4
313.14 K, 32736 kPa	1499.5
313.14 K, 32789 kPa	1499.7
313.14 K, 32821 kPa	1500
313.14 K, 32853 kPa	1500
313.14 K, 32900 kPa	1500.1
313.14 K, 32937 kPa	1500.2
313.14 K, 32975 kPa	1500.4
313.14 K, 33013 kPa	1500.5
313.14 K, 33094 kPa	1500.7
313.15 K, 714 kPa	1321.1
313.15 K, 733 kPa	1321.4
313.15 K, 755 kPa	1321.6
313.15 K, 777 kPa	1321.7
313.15 K, 797 kPa	1322.1
313.15 K, 819 kPa	1322.3
313.15 K, 838 kPa	1322.5
313.15 K, 871 kPa	1322.8
313.15 K, 891 kPa	1323.2
313.15 K, 917 kPa	1323.3
313.15 K, 934 kPa	1323.7
313.15 K, 963 kPa	1323.9
313.15 K, 985 kPa	1324
313.15 K, 1014 kPa	1324.4
313.15 K, 1036 kPa	1324.7
313.15 K, 1063 kPa	1325
313.15 K, 1087 kPa	1325.1
313.15 K, 1117 kPa	1325.7
313.15 K, 1146 kPa	1325.9
313.15 K, 1167 kPa	1326.1
313.15 K, 1191 kPa	1326.5
313.15 K, 1222 kPa	1326.6
313.15 K, 1249 kPa	1327
313.15 K, 1273 kPa	1327.4
313.15 K, 1296 kPa	1327.6
313.15 K, 1317 kPa	1327.7
313.15 K, 1338 kPa	1328
313.15 K, 1369 kPa	1328.3
313.15 K, 1396 kPa	1328.6
313.15 K, 1472 kPa	1329.4
313.15 K, 1496 kPa	1329.6
313.15 K, 1525 kPa	1330
313.15 K, 1550 kPa	1330.3
313.15 K, 1575 kPa	1330.4
313.15 K, 1597 kPa	1330.7
313.15 K, 1618 kPa	1331
313.15 K, 1653 kPa	1331.4
313.15 K, 1677 kPa	1331.6
313.15 K, 1698 kPa	1331.7
313.15 K, 1726 kPa	1332.2
313.15 K, 1744 kPa	1332.4
313.15 K, 1772 kPa	1332.6
313.15 K, 1793 kPa	1332.8
313.15 K, 1811 kPa	1333
313.15 K, 1836 kPa	1333.3
313.15 K, 1864 kPa	1333.4
313.15 K, 1893 kPa	1333.9
313.15 K, 1921 kPa	1334.1
313.15 K, 1946 kPa	1334.4
313.15 K, 1972 kPa	1334.7
313.15 K, 1998 kPa	1334.8
313.15 K, 2028 kPa	1335.1
313.15 K, 2049 kPa	1335.2
313.15 K, 2077 kPa	1335.6
313.15 K, 2102 kPa	1335.9
313.15 K, 2131 kPa	1336.1
313.15 K, 2153 kPa	1336.4
313.15 K, 2183 kPa	1336.7
313.15 K, 2208 kPa	1337
313.15 K, 2230 kPa	1337.2
313.15 K, 2692 kPa	1341.6
313.15 K, 2720 kPa	1342
313.15 K, 2751 kPa	1342.2
313.15 K, 2775 kPa	1342.4
313.15 K, 2803 kPa	1342.8
313.15 K, 2825 kPa	1342.9
